This is an account of results in patent publication US9988430B2, “Stable GLP-1 based GLP-1/glucagon receptor co-agonists” (Novo Nordisk A/S, priority 2014, dated 2018).

One experiment concerns the target T1, human GLP-1 receptor (Homo sapiens, UniProt P43220).
T1 construct: expressed in transfected cells; host or cells: membranes of BHK cells, parent line BHKTS13, clone FCW467-12A
As to the kind of experiment: Assay (I)(a): GLP-1 receptor potency, CRE luciferase reporter gene assay in BHK cells. The note with it: BHK cells expressing human GLP-1 receptor, read-out: EC50 GLP-1R. It is filed as cell-based. A digest of the protocol: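 BHK cells (clone FCW467-12A/KZ10-1), 5×10EE3/well, exposed 3 h at 37° C to compound at 1×10EE-13 to 1×10EE-6 M final in medium with 2% ovalbumin and 0.2% Pluronic F-68. Luciferase luminescence read; EC50 (pM) from four-parameter fit.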

The target in experiment [1] is T2, human glucagon receptor (Homo sapiens, UniProt P47871).
T2 construct: expressed in transfected cells; host or cells: membranes of BHK cells, clone BHK hGCGR A3*25
As to the kind of experiment: Assay (I)(b): glucagon receptor potency, CRE luciferase reporter gene assay in BHK cells. The class given is cell-based. The note with it: BHK cells expressing human glucagon receptor, read-out: EC50 GlucagonR. Here is the method:
Assay (I): GLP-1 and Glucagon Receptor Potency The purpose of this example was to test the activity or potency, of the GLP-1 derivatives of the invention, in vitro. The in vitro potency is the measure of human GLP-1 receptor (GLP-1R) or glucagon receptor (glucagonR) activation, respectively, in a whole cell assay. In vitro potency was determined by measuring the cellular response of human GLP-1 or glucagon receptor activation, respectively, in a reporter gene assay. The assay was performed in a BHK cell line that stably expresses either the human GLP-1 receptor or the human glucagon receptor and comprises the DNA for the cAMP response element (CRE) coupled to a promoter and the gene for firefly luciferase (CRE luciferase). […] When assay incubation was completed, the luciferase substrate (luciferin) was added and the enzyme converted luciferin to oxyluciferin and produces bioluminescence. The luminescence was measured as the readout for the assay. […] The cells were counted and adjusted to 5×10EE3 cells/50 μl (1×10EE5 cells/ml) in Assay Medium. […] Each assay plate was read in a Perkin Elmer TopCount NXT instrument. […] EC50 values were calculated by the software and reported in pM.

The target of experiment [2] is T2, human glucagon receptor. Put plainly: Assay (II)(b): glucagon receptor binding, [125I]-glucagon displacement, SPA on BHK membranes. The note with it: displacement of [125I]-glucagon, membranes with human glucagon receptor; read-out: IC50 GlucagonR. As to the method: Assay (II): GLP-1 and Glucagon Receptor Binding The purpose of this assay is to test the in vitro receptor binding activity of the GLP-1 derivatives of the invention. (b) Glucagon Receptor Binding The glucagon receptor (glucagonR) binding activity is a measure of affinity of a derivative for the human glucagon receptor. The glucagon receptor binding of each derivative were determined with competitive binding, displacing [^125I]-glucagon bound to glucagon receptors expressed in cell membranes associated with wheat germ agglutinin (WGA) scintillation proximity assay (SPA) beads. Each derivative was added in a series of concentrations to isolated membranes comprising the human glucagon receptor and displacement of the labelled ligand was monitored. The receptor binding was reported as the concentration at which half of the labelled ligand is displaced from the receptor, the IC^50 value. The following chemicals were used in the assay: DMEM w Glutamax (Gibco 61965-026), Pen/strep (Invitrogen 15140-122), G418 (Invitrogen 10131-027), Versene (Gibco 15040), 1 M Hepes (Gibco 15630), PBS (Invitrogen 14190-094), fetal calf serum (Invitrogen 16140-071), MgCl2 (Merck 1.05832.1000), EDTA (Invitrogen 15575-038), CaCl2 (Sigma, C5080), Tween 20 (Amresco 0850C335), ovalbumin (Sigma A5503), SPA particles (wheat germ agglutinin (WGA) SPA beads, Perkin Elmer RPNQ0001), [125I]-glucagon (produced in-house), OptiPlate™-96 (Packard 6005290). HME buffer consisted of 25 mM HEPES, 2 mM MgCl2 and 1 mM EDTA, and pH was adjusted to 7.4. Assay buffer consisted of 50 mM HEPES supplemented with 5 mM MgCl2, 1 mM CaCl2, 0.02% Tween 20 and 0.1% Ovalbumin, and pH was adjusted to 7.4. The cells used in this assay (clone BHK hGCGR A3*25) were BHK cells stable transfected with an expression plasmid comprising the cDNA encoding the human glucagon receptor. The cells were grown at 5% CO2 in DMEM, 10% fetal calf serum, 1% Pen/Strep (Penicillin/Streptomycin) and 1.0 mg/ml of the selection marker G418. To make a membrane preparation the cells were grown to approximately 80% confluence. The cells were washed twice in phosphate-buffered saline and harvested. The cells were pelleted using a brief centrifugation and the cell pellet was kept on ice. Lyse the cells by adding approx. 5 ml HME buffer, mix by pipetting and snap freeze in liquid nitrogen. Thaw quickly and add HME buffer to 10 ml. The cell pellet was homogenised with an ULTRA-THURRAX dispersing instrument for 20-30 seconds. The homogenate was centrifuged at 20.000×G, 4° C. for 10 minutes. The pellet was resuspended (homogenised) in 1-2 ml HME buffer. The protein concentration was determined. The membranes were aliquoted and snapfrozen in liquid nitrogen and stored at minus 80° C. • 1. For the receptor binding assay 50 μl of the assay buffer was added to each well of an assay plate. • 2. Test compounds were serially diluted to give the following concentrations: 8×10EE-7 M, 8×10EE-8 M, 8×10EE-9 M, 8×10EE-10 M, 8×10EE-11 M, 8×10EE-12 M and 8×10EE-13 M. Twenty-five μl were added to appropriate wells in the assay plate. • 3. Cell membrane aliquots were thawed and diluted to their working concentration. Fifty μl were added to each well in the assay plate. • 4. WGA SPA beads were suspended in assay buffer at 20 mg/ml. The suspension was diluted to 10 mg/ml in assay buffer just prior to addition to the assay plate. Fifty μl were added to each well in the assay plate. • 5. The incubation was started by adding 25 μl of 480 pM solution of [125I]-glucagon to each well of the assay plate. A 25 μl aliquot was reserved for measuring total counts/well. • 6. The assay plate was incubated for 2 h at 25° C. • 7. The assay plate was centrifuged for 10 min at 1500 rpm. • 8. The assay plate was read in a Perkin Elmer TopCount NXT instrument. Calculations The data from the TopCount instrument were transferred to GraphPad Prism software. The software averaged the values for the replicates and performed a non-linear regression. […]

*1 amine or outer side, *2 acyl side, *3 side chain or, on linkers, in order; H or OH if unused. Where a SMILES comes first, the peptide text is derived from it. Side-chain parts run from the residue outwards. [ ]: non-standard residue; d: D form. The star is where a group is joined. C18 diacid = O=C(O)CCCCCCCCCCCCCCCCC(=O)*; γGlu = O=C(O)[C@H](CCC(=O)[*:2])N[*:1]; C14 diacid = O=C(O)CCCCCCCCCCCCC(=O)*; Desaminohistidyl = O=C(CCc1c[nH]cn1)*; AEEA = NCCOCCOCC(=O)O; Aib = CC(C)(N)C(=O)O

T1 sequence (P43220 24-463): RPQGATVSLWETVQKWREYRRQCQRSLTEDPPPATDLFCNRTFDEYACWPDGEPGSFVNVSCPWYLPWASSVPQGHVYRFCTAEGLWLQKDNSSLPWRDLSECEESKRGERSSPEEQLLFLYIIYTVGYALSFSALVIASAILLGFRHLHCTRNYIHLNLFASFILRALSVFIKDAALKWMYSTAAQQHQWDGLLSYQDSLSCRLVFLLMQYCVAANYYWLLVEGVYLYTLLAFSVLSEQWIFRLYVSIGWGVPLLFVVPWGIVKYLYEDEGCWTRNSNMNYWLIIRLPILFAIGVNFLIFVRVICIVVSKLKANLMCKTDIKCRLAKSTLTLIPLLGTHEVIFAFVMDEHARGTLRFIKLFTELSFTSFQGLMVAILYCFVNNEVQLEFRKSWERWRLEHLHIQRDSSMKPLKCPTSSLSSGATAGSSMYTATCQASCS
T2 sequence (P47871 26-477): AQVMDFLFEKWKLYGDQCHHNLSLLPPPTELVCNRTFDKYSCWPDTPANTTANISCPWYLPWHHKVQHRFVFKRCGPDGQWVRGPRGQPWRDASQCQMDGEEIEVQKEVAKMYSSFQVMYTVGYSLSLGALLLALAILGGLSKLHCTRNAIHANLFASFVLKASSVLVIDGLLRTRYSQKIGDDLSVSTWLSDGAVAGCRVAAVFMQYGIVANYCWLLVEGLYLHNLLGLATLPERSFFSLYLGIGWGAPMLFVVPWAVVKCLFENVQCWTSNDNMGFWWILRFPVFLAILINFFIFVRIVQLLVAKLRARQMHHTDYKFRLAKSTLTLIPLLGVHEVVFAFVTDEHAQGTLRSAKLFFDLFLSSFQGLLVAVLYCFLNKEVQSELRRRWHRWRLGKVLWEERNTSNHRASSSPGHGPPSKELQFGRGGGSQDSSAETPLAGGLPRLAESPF

In the case of `CC[C@H](C)[C@H](NC(=O)[C@H](Cc1ccccc1)NC(=O)[C@H](CCCCNC(=O)COCCOCCNC(=O)COCCOCCNC(=O)CC[C@H](NC(=O)CC[C@H](NC(=O)CC[C@H](NC(=O)CCCCCCCCCCCCCCCCC(=O)O)C(=O)O)C(=O)O)C(=O)O)NC(=O)[C@H](CCCNC(=N)N)NC(=O)[C@H](C)NC(=O)[C@H](C)NC(=O)[C@H](CCC(N)=O)NC(=O)[C@H](CCC(=O)O)NC(=O)[C@H](CCC(=O)O)NC(=O)[C@H](CC(C)C)NC(=O)[C@H](Cc1ccc(O)cc1)NC(=O)[C@H](CCCNC(=N)N)NC(=O)[C@H](CO)NC(=O)[C@@H](NC(=O)[C@H](CC(=O)O)NC(=O)[C@H](CO)NC(=O)[C@@H](NC(=O)[C@H](Cc1ccccc1)NC(=O)[C@@H](NC(=O)CNC(=O)[C@H](Cc1c[nH]cn1)NC(=O)C(C)(C)NC(=O)CCc1c[nH]cn1)[C@@H](C)O)[C@@H](C)O)C(C)C)C(=O)N[C@@H](C)C(=O)N[C@@H](Cc1c[nH]c2ccccc12)C(=O)N[C@@H](CC(C)C)C(=O)N[C@@H](CC(C)C)C(=O)N[C@@H](CCCNC(=N)N)C(=O)O` [Example 19, N^ε27-[2-[2-[2-[[2-[2-[2-[[(4S)-4-carboxy-4-[[(4S)-4-carboxy-4-[[(4S)-4-carboxy-4-(17-carboxyheptadecanoylamino)butanoyl]amino]butanoyl]amino]butanoyl]amino]ethoxy]ethoxy]acetyl]amino]ethoxy]ethoxy]acetyl]-[Imp7,Aib8,His9,Arg18,Glu22,Arg26,Lys27,Leu33,Arg34]-GLP-1-(7-34)-peptide] (Desaminohistidyl-[Aib]HGTFTSDVSRYLEEQAARK([AEEA-AEEA-γGlu-γGlu-γGlu-C18 diacid])FIAWLLR-OH), the figures for the EC50 on human GLP-1 receptor and at human glucagon receptor [1] were 0.007 nM and 0.143 nM, respectively.

Regarding `CC[C@H](C)[C@H](NC(=O)[C@H](Cc1ccccc1)NC(=O)[C@H](CCC(=O)O)NC(=O)[C@H](CCCNC(=N)N)NC(=O)[C@H](C)NC(=O)[C@H](C)NC(=O)[C@H](CCC(N)=O)NC(=O)[C@H](CCC(=O)O)NC(=O)[C@H](CCC(=O)O)NC(=O)[C@H](CC(C)C)NC(=O)[C@H](Cc1ccc(O)cc1)NC(=O)[C@H](CCCCN)NC(=O)[C@H](CO)NC(=O)[C@@H](NC(=O)[C@H](CC(=O)O)NC(=O)[C@H](CO)NC(=O)[C@@H](NC(=O)[C@H](Cc1ccccc1)NC(=O)[C@@H](NC(=O)CNC(=O)[C@H](Cc1c[nH]cn1)NC(=O)C(C)(C)NC(=O)CCc1c[nH]cn1)[C@@H](C)O)[C@@H](C)O)C(C)C)C(=O)N[C@@H](C)C(=O)N[C@@H](Cc1c[nH]c2ccccc12)C(=O)N[C@@H](CC(C)C)C(=O)N[C@@H](CC(C)C)C(=O)N[C@@H](CCCCNC(=O)COCCOCCNC(=O)COCCOCCNC(=O)CC[C@H](NC(=O)CC[C@H](NC(=O)CCCCCCCCCCCCC(=O)O)C(=O)O)C(=O)O)C(=O)N[C@H](C(N)=O)[C@@H](C)O` [Example 38, N^ε34-[2-[2-[2-[[2-[2-[2-[[(4S)-4-carboxy-4-[[(4S)-4-carboxy-4-(13-carboxytridecanoylamino)butanoyl]amino]butanoyl]amino]ethoxy]ethoxy]acetyl]amino]ethoxy]ethoxy]acetyl]-[Imp7,Aib8,His9,Lys18,Glu22,Arg26,Leu33,Thr35]-GLP-1-(7-35)-peptide amide] (Desaminohistidyl-[Aib]HGTFTSDVSKYLEEQAAREFIAWLLK([AEEA-AEEA-γGlu-γGlu-C14 diacid])T-NH2), the IC50 on human glucagon receptor [2] was 3.7 nM. The EC50 on human GLP-1 receptor was 0.012 nM.
